From ChEMBL document CHEMBL1152299, “Indazole-based liver X receptor (LXR) modulators with maintained atherosclerotic lesion reduction activity but diminished stimulation of hepatic triglyceride synthesis” (J Med Chem, 2008) come the findings set out here.

Data set [1] deals with T1, Androgen receptor (Homo sapiens, UniProt P10275).
T1 sequence (P10275 whole entry): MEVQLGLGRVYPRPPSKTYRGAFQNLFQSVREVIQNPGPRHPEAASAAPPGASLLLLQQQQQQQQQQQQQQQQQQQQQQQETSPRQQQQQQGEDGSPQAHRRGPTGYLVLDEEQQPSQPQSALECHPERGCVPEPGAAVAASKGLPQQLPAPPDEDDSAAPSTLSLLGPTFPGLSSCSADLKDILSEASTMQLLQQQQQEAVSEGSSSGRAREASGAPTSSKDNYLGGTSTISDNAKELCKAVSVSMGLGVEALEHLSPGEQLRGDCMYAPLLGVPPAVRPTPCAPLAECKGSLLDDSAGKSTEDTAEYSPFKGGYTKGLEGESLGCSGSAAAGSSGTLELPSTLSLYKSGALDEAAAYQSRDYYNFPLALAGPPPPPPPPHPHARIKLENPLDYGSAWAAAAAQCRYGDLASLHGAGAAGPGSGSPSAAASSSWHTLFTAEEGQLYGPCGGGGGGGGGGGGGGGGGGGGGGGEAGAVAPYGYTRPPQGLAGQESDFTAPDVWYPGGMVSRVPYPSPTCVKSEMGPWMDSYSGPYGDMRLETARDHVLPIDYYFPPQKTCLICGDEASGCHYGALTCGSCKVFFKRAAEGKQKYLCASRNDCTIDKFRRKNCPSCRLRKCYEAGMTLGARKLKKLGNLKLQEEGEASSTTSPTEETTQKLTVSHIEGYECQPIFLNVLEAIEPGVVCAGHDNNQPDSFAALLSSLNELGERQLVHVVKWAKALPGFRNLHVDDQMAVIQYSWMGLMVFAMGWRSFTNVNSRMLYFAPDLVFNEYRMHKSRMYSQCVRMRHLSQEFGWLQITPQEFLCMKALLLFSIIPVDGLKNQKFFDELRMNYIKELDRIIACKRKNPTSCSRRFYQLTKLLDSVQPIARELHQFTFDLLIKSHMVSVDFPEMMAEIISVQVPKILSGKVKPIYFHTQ
Put plainly: (§1) Displacement of radiolabeled mibolerone from human androgen receptor by filter paper assay.

In data set [2] the test system is Mus musculus. As to the kind of experiment: Decrease in total cholesterol level in LDL receptor knockout C57BL/6 mouse plasma at 15 mg/kg administered with Western diet after 8 weeks. Format: functional. Details: scale not given: the % may be the effect or the level left.
Data set [3] concerns Syrian golden hamster. Put plainly: Induction of FAS gene expression in golden Syrian hamster liver at 100 mg/kg administered with chow diet for 7 days measured after 2 hrs of final dose by real time PCR. The format is functional, organism-based. Further details: dose 100 mg/kg. The following applies: Mesocricetus auratus.
A short description of data set [4]: Tmax in C57 mouse at 1 mg/kg, iv and 10 mg/kg, po. The format is ADME, organism-based. The following applies: in vivo.
Data set [5] is described as follows: Clearance in C57 mouse at 1 mg/kg, iv and 10 mg/kg, po. The format is ADME, organism-based. The following applies: in vivo.
The nature of data set [6]: Terminal half life in C57 mouse at 10 mg/kg, po. Format: ADME, organism-based. Further details: dose 10 mg/kg, route oral. The settings on record: in vivo, read-out: beta t1/2 (converted).
Data set [7] deals with Mus musculus. As to the kind of experiment: Upregulation of ABCA1 gene expression in LDL receptor knockout C57BL/6 mouse duodenum at 15 mg/kg administered with Western diet. The following applies: route oral. The format is functional.
Data set [8] is described as follows: Cmax in male C57 mice after 10 mg/kg oral dose. The settings on record: C57, mouse, in vivo. Format: ADME, organism-based. Further details: dose 10 mg/kg, route oral.
Data set [9] has as its target T2, Androgen receptor (Homo sapiens) (UniProt P10275).
T2 sequence (whole entry): T1 sequence (P10275 whole entry)
The description is as §1.

The structures appear in SMILES notation. Calls of active or inactive are those of the source. The calls are words filed in the database; no cut-off is given here.

On to `Fc1ccc(-c2c3cccc(C(F)(F)F)c3nn2Cc2ccc(F)cc2Cl)cc1` [LXR-623], for which the IC50 in data set [1] is 2300 nM.

As for `Fc1ccc(-c2c3cccc(C(F)(F)F)c3nn2Cc2ccccc2F)cc1`, the Activity in data set [2] amounted to 10%. Also, the outcome in data set [3] and in [9] was inactive. Besides, the Tmax in [4] worked out at 0.5 h. The molecule further showed a clearance in data set [5] of 57 mL/min/kg. For the same molecule, the half-life in data set [6] was 5.8 h. For the same molecule, the “fold change (FC)” value in data set [7] was found to be 2.3. The molecule also yielded a Cmax in [8] of 633 ng/mL.
